The values below are quoted from earlier work in patent US20040053283A1, “Gene 4” (priority 2000, published 2004).

The test system of data set [1] is tissue culture model of cerebral ischemia.
The test system of data set [2] is rat stroke model (middle ear cerebral artery occlusion). As to conditions: in vivo.

Structures are written as SMILES.

With `O=C(O)CCC(CP(=O)(O)O)C(=O)O` (stereo not shown) [2-PNPA, 2-(phosphonomethyl)pentanedioic acid], the “protection from cellular injury” value in data set [1] (10 μM, tissue culture model of cerebral ischemia) is recorded as 85%. For the same compound, the protective effect result in data set [1] (even one hour after the ischemia) is recorded as “significant”. The neuronal protection result in data set [2] (rat stroke model (middle ear cerebral artery occlusion)) is on record as “high degree of neuronal protection”. For the same compound, the tolerability result in data set [2] (rat stroke model, at levels that produced a high degree of neuronal protection) is “well tolerated”.
